Counter-ions that a name gives are not always drawn. Residues, ends and D or L forms follow the SMILES beside them. *: point of attachment. Cbz = O=C(OCc1ccccc1)*
How the values were obtained:
[1] = T cell viability by flow cytometry; type: cell-based; settings: human; for viability at 4 days, 20 nM: Drug 20 nM; for viability at 4 days, 100 nM: Drug 100 nM; for viability at 4 days, 500 nM: Drug 500 nM
Method: (§1) Human peripheral blood mononuclear cells (PBMC) and purified T cells from healthy donors were purchased from […] Technologies (CA). Cells (7.5×10^6/ml) were cultured in the RPMI supplementing with 10% heat-inactivated fetal bovine serum (vWR), 1% penicillin/streptomycin (SigmaMillipore), 1% sodium pyruvate, and 1% non-essential amino acids (Gibco) in 24 well plates in the presence of 100 IU/ml interleukin 2 ([…] Technologies or HIV reagent program (managed by ATCC).
(§2) Then, cells were induced with T cell activator ([…]) in the presence of the drugs for 2 more days. After 4 days, the viability of treated T cells was analyzed using Flow cytometry. The supernatants for both PBMC and T cells were collected for further analysis.

[2] = system: T cells; assay: Multiplex cytokine array, activated T cell supernatant; type: cell-based, human; settings: 48 h drug, then T cell activator with drug 2 more days
Method: as §1, §2
The collected supernatants were analyzed for various biomarkers using multiplex cytokine array (Eve Technologies Discovery assay, Calgary, CA) either human cytokine/chemokine 71-Plex (HD71) for PBMC or human proinflammatory focused 15-Plex (HDF15) for T cells samples.

[3] = system: Src and Lyn SFK protein levels; assay: SFK protein levels (Western blot); type: cell-based; settings: BL2 cells treated with PCLX-001, 10 μM MG132 for the last 6 hrs
Method: Cells were harvested, washed in cold PBS, and lysed in […] SDS-RIPA buffer (50 mM Tris-HCl pH 8.0, 150 mM NaCl, 1% Igepal CA-630, 0.5% sodium deoxycholate, 2 mM MgCL2, 2 mM EDTA with 1×complete protease inhibitor; (Roche Diagnostics) by rocking for 15 min at 4° C. The lysates were centrifuged at 16,000 g for 10 min at 4° C., and the post-nuclear supernatant was collected.
Protein concentrations were determined by BCA assay (Thermo Scientific) according to manufacturer's instructions. Samples were prepared for electrophoresis by the addition of 5× loading buffer and boiled for 5 min. If not stated otherwise, […] of total protein per lane is loaded on a 12.5% acrylamide gels. After electrophoresis, gels are transferred onto […] nitrocellulose membrane (Bio-Rad) thereafter probed with antibodies as described in materials section.

[4] = Mouse IV; cited from earlier work
[5] = system: BCR signaling in BL2 cells; assay: BCR signaling after anti-IgM in BL2 cells (Western blot); type: cell-based; settings: 0.1 or 1.0 μM, 48 hrs
Method: IM9, Ramos, SU-DHL-10 and COS-7 were purchased from ATCC. BL2, DOHH2, WSU-DLCL2 & BJAB were purchased from DSMZ (Germany). Ramos and BL2 were kind gifts of Drs. Jim Stone and Robert […] of University of Alberta. VDS isolation was described in Tosato G, et al. (reference 47). VDS, BJAB and SU-DHL-10 were kind gifts of Dr. Michael Gold of the University of British Columbia. HUVEC cells (pooled from up to 4 umbilical cords) were purchased from PromoCell. […] Cell lines were tested regularly for mycoplasma contamination using MycoAlert Plus Mycoplasma Detection Kit (Lonza, ME, USA). All cell lines tested negative for mycoplasma contamination. […] Please see supplementary Table 3 for cell line names, types and histology. For transfections, adherent cells COS-7 cells were transfected using X-tremeGENE9 DNA (Roche) transfection reagent according to manufacturer's instructions. For BCR activation experiments, cells were incubated with 25 μg/ml of Goat F(ab')2 anti-human IgM (or anti-human IgM (μ chain) showing identical BCR activation properties) for 2 minutes and the activation was stopped by the addition of 1 mM vanadate (Bio Basic Inc) solution in PBS. Protein concentrations were determined by BCA assay (Thermo Scientific) according to manufacturer's instructions. Samples were prepared for electrophoresis by the addition of 5× loading buffer and boiled for 5 min. […]

[6] = mouse, in vivo
Method: (§4) Mice were observed daily for clinical signs of toxicity and effects on body weight. After the last dose, three mice/group were euthanized and necropsied. At euthanasia, blood samples were taken for hematology analyses and to measure AST and CK activities and bilirubin and creatinine concentrations. At necropsy, samples of samples of femur, both kidneys, liver, small intestine, and injection site were taken and fixed.
(§5) The dose volume was 10 mL/kg. At the end of the two-to three-week dosing period, mice were euthanized and three/group were necropsied. Mice that died or were euthanized early for humane reasons also were necropsied. In life, mice were monitored regularly and weighed daily, and tumors were measured with digital Vernier calipers (Mitutoyo) every other day. Tumor volume was calculated as length (mm)×width (mm)2/2; length and width were the longest and shortest diameters, respectively. At euthanasia, at the end of the dosing period blood samples were taken for hematology analyses and clinical chemistry analyses that included AST and CK activities and bilirubin and creatinine concentrations (plus ALT activity and BUN concentration in the Jackson Laboratory study). At necropsy, samples of femur, both kidneys, liver, small intestine, and injection site were collected and fixed. These were subsequently processed and examined by light microscopy for histopathologic findings. Also at necropsy, the tumors were removed and divided in two. One piece was fixed in 10% neutral buffered formalin for 24 h at room temperature and embedded in paraffin; the other was snap frozen for RNA and protein analysis. Tumor growth inhibition (TGI) for all xenograft experiments was calculated following the formula:

[7] = mouse, in vivo; remark: listed apart in the source
Method: Data collected were the same as in the Charles River xenograft study—clinical signs, body weight, tumor volume, blood samples from 3 mice/group for hematology and clinical chemistry (ALT, AST, BUN, creatinine, CK), and tissue samples collected and fixed from the same 3 mice. Liver, kidneys, and small intestine also were weighed.
(§3) The dose volume was 10 mL/kg.

[8] = Toxicology in DLBCL3 patient derived xenograft mice; type: in vivo, mouse; settings: within the first 7 days
Method: as §3

[9] = Toxicology in DOHH2 xenograft mice; settings: DOHH2 xenograft; Doxorubicin 3 mg/kg Once a week; normal [5-20]
Method: as §4, §5

[10] = system: DOHH2 tumors; assay: DOHH2 xenograft, tumor growth; type: in vivo, mouse; settings: doxorubicin treatment
Method: DOHH2 xenograft study at Charles River's facility: […] On Day 1 of the study, animals were given a rehydration solution ad libitum in an effort to reduce dehydration during the dosing phase of the study. […] The dose volume was 10 mL/kg.

[11] = system: BL2 xenografts; assay: BL2 xenograft, tumor growth; type: in vivo, mouse; settings: doxorubicin
Excerpt: BL2 xenograft study at Jackson Laboratory: One hundred five (105) 6 week old female NOD.CB17-Prkdc scid/J (NOD scid, Stock #001303) mice were transferred to the in vivo research laboratory in Sacramento, CA. The mice were ear notched for identification and housed in individually and positively ventilated polysulfone cages with HEPA filtered air at a density of 5 mice per cage. Initially cages were changed every two weeks. The animal room was lighted entirely with artificial fluorescent lighting, with a controlled 12 hour light/dark cycle (6 am to 6 pm light). The normal temperature and relative humidity ranges in the animal rooms were 20-26° C. and 30-70%, respectively. The animal rooms were set to have up to 15 air exchanges per hour. Filtered tap water, acidified to a pH of 2.5 to 3.0, and standard lab chow were provided ad libitum.
as §3
TGI (%)=(Vcontrol−Vtreated)/(Vcontrol−Vnitial)*100.

[12] = purified T cells from healthy donors, T cells viability (#1)
[13] = purified T cells from healthy donors, T cells viability (#2)
[14] = purified T cells from healthy donors, T cells viability (#3)

## Cc1nn(C)c(C)c1CCOc1c(-c2ccc3c(c2)c(CN(C)C)nn3C)ccc(F)c1F [IMP-1088, reference compound]
[1]; [12]
  viability at 4 days, 20 nM: 9%
  viability at 4 days, 100 nM: 10%
  viability at 4 days, 500 nM: 6%
[1]; [13]
  viability at 4 days, 20 nM: 61%
  viability at 4 days, 100 nM: 59%
  viability at 4 days, 500 nM: 59%
[1]; [14]
  viability at 4 days, 20 nM: 74%
  viability at 4 days, 100 nM: 70%
  viability at 4 days, 500 nM: 70%
[2]
  TNFa secretion: increasing the secretion
  level of IL-5, IL-10 and IL-13: significantly reduced
  level of IL-6, IL-8 and IFN-gamma: significantly reduced

## CC(C)C[C@@H](C=O)NC(=O)[C@H](CC(C)C)NC(=O)[C@H](CC(C)C)NC(=O)OCc1ccccc1 [MG132] (Cbz-Leu-Leu-Leu-aldehyde)
[3]
  levels of the 4 SFK proteins (Src, Lyn, Hck, Lck): partial or complete restoration

## Cc1nn(C)c(C)c1N[S+](=O)([O-])c1c(Cl)cc(-c2ccnc(N3CCNCC3)c2)cc1Cl [PCLX-002]
[4]
  Clearance: 5 mL/min/kg
[1]; T cells viability (#1)
  viability at 4 days, 20 nM: 9%
  viability at 4 days, 100 nM: 9%
  viability at 4 days, 500 nM: 9%
[1]; T cells viability (#2)
  viability at 4 days, 20 nM: 65%
  viability at 4 days, 100 nM: 65%
  viability at 4 days, 500 nM: 65%
[1]; T cells viability (#3)
  viability at 4 days, 20 nM: 75%
  viability at 4 days, 100 nM: 75%
  viability at 4 days, 500 nM: 69%
[2]
  level of IL-5, IL-10 and IL-13: significantly reduced
  level of IL-6, IL-8 and IFN-gamma: significantly reduced

## Cc1nc(Nc2ncc(C(=O)Nc3c(C)cccc3Cl)s2)cc(N2CCN(CCO)CC2)n1 [dasatinib]
[5]
  HGAL and Arf1 protein levels: no effect

## COc1cccc2c1C(=O)c1c(O)c3c(c(O)c1C2=O)C[C@@](O)(C(=O)CO)C[C@@H]3O[C@H]1C[C@H](N)[C@H](O)[C@H](C)O1 [doxorubicin, Doxorubicin hydrochloride, reference compound]
[6]
  reduced body weight: up to 8%
[7]
  Absolute Lymphocyte cells: 2.28 ± 0.4
  Absolute Monocyte cells: 0.7 ± 0.19
  Hemoglobin: 13.6 ± 0.21 g/dL
  MCH: 13.6 ± 0.12
  ROW %: 17.03 ± 0.15%
[8]
  toxicity of doxorubicin treatment: severe drug toxicity and death in the majority of tumor bearing mice
[9]
  MPV: 6.2 ± 0.15 fL
[10]
  TGI: 57%
[11]
  effect on BL2 tumor growth: no effect

## C=CC(=O)N1CCC[C@@H](n2nc(-c3ccc(Oc4ccccc4)cc3)c3c(N)ncnc32)C1 [ibrutinib]
[5]
  HGAL and Arf1 protein levels: no effect

— patent US20240350481A1, “USE OF N-MYRISTOYL TRANSFERASE (NMT) INHIBITORS IN THE TREATMENT OF CANCER, AUTOIMMUNE DISORDERS, AND INFLAMMATORY DISORDERS” (PACYLEX PHARMACEUTICALS INC., priority 2020, published 2024)
